We go through 18 compounds from US20110166121A1 (LG LIFE SCIENCES LTD., priority 2008, published 2011).

Molecules are shown by their SMILES.

Experiment [1] deals with Human platelet aggregation caused by ADP. The experiment is described as follows: Inhibition of ADP-induced platelet aggregation (Mimic-human PRP). In kind it is cell-based. Particulars: 20 μM ADP, human platelet concentrate diluted with PPP, absorption at 595 nm. The essentials:
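Human PRP diluted with PPP to 3–4×10^8 platelets/mL was preincubated 20 min at room temperature with compound (0.01–30 μM, DMSO), then stimulated with 20 μM ADP. Aggregation read as A595 increase at 3 min versus 0 and 20 μM ADP controls; Ki from sigmoidal non-linear regression.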

Experiment [2] deals with T1, Human P2Y12 receptor (Homo sapiens, UniProt Q9H244).
T1 construct: expressed in transfected cells; host or cells: HEK cells
T1 sequence (Q9H244 whole entry): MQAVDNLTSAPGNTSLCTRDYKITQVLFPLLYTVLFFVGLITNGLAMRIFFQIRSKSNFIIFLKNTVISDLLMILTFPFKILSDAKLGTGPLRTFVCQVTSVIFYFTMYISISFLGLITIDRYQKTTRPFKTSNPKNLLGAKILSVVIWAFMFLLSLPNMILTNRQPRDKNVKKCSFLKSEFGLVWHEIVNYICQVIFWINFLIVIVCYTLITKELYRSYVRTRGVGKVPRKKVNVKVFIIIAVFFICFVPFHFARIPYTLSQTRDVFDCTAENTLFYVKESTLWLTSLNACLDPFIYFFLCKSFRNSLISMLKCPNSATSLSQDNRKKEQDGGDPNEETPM
The experiment in a line: Human P2Y12 receptor cell membrane binding assay with [3H] 2-Mes-ADP. Particulars: 1 nM [3H] 2-Mes-ADP, membranes of HEK cells expressing P2Y12 receptor; read-out: Binding activity (IC50). The essentials: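 Membranes from HEK cells expressing human P2Y12 were incubated with compound and 1 nM [3H]2-MeS-ADP for 1 h at room temperature. Bound radioactivity was collected by GF/B filtration.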

One may read the Ki as a measure of affinity in units of concentration, obtained from inhibition or displacement. Usually IC50 stands for the concentration needed to halve the response being measured. Turning to `CCCc1cc2c(N3CCn4c(nnc4C(F)(F)F)C3)nc(N3CCC[C@H](N)C3)nc2s1` [Example 1-125, (S)-1-[6-Propyl-4-(3-trifluoromethyl-5,6-dihydro-8H-[1,2,4]triazolo[4,3-a]pyrazin-7-yl)-thieno[2,3-d]pyrimidin-2-yl]-piperidin-3-ylamine], the Ki in experiment [1] is 0.045 µM. For the same compound, the IC50 in experiment [2] came out at 0.15 µM.
The compound `CCCc1cc2c(N3CCn4c(nnc4C(F)(F)F)C3)nc(N3CC[C@@H](C(=O)OC(C)C)C3)nc2s1` [Example 1-62, (R)-1-[6-Propyl-4-(3-trifluoromethyl-5,6-dihydro-8H-[1,2,4]triazolo[4,3-a]pyrazin-7-yl)-thieno[2,3-d]pyrimidin-2-yl]-pyrrolidine-3-carboxylic acid isopropyl ester] registered a Ki in experiment [1] of 0.2 µM. Moreover, the IC50 in experiment [2] worked out at 0.32 µM.
In the case of `CCCc1cc2c(N3CCn4c(nnc4C(F)(F)F)C3)nc(Cc3nc(C(=O)OCC)cs3)nc2s1` [Example 4-57, 2-[6-Propyl-4-(3-trifluoromethyl-5,6-dihydro-8H-[1,2,4]triazolo[4,3-a]pyrazin-7-yl)-thieno[2,3-d]pyrimidin-2-ylmethyl]-thiazole-4-carboxylic acid ethyl ester], in experiment [1], the affinity, expressed as Ki, was 0.28 µM. Moreover, the IC50 in experiment [2] came to 0.24 µM.
For `CCCc1cc2c(N3CCn4c(nnc4C(F)(F)F)C3)nc(CC(=O)O)nc2s1` [Example 4-54, [6-Propyl-4-(3-trifluoromethyl-5,6-dihydro-8H-[1,2,4]triazolo[4,3-a]pyrazin-7-yl)thieno[2,3-d]pyrimidin-2-yl]acetic acid], in experiment [1], the Ki was found to be 0.47 µM. In addition, the IC50 in experiment [2] amounted to 0.37 µM.
In experiment [1], `CCCc1cc2c(N3CCn4c(nnc4C(F)(F)F)C3)nc(N3CCNC(=O)C3)nc2s1` [Example 1-1, 4-[6-Propyl-4-(3-trifluoromethyl-5,6-dihydro-8H-[1,2,4]triazolo[4,3-a]pyrazin-7-yl)-thieno[2,3-d]pyrimidin-2-yl]-piperazin-2-one] gave a Ki of 0.13 µM. Further, the IC50 in experiment [2] was 0.02 µM.
In experiment [1], `CCCc1cc2c(N3CCn4c(nnc4C(F)(F)F)C3)nc(Oc3cccc(N4CCNCC4)c3)nc2s1` [Example 3-45, 7-[2-(3-piperazin-1-yl-phenoxy)-6-propyl-thieno[2,3-d]pyrimidin-4-yl]-3-trifluoromethyl-5,6,7,8-tetrahydro-[1,2,4]triazolo[4,3-a]pyrazine] gave a Ki of over 4 µM. In experiment [2], the IC50 was 1.9 µM.
With `CCCc1cc2c(N3CCn4c(nnc4C(F)(F)F)C3)nc(N3CCCC(C(=O)OCC)C3)nc2s1` (stereo not drawn) [Example 1-45, 1-[6-Propyl-4-(3-trifluoromethyl-5,6-dihydro-8H-[1,2,4]triazolo[4,3-a]pyrazin-7-yl)-thieno[2,3-d]pyrimidin-2-yl]-piperidine-3-carboxylic acid ethyl ester], the Ki in experiment [1] is 1 µM. Besides, in experiment [2], the IC50 is 0.34 µM.
The corresponding values for `CCCCc1cc2c(N3CCn4c(nnc4C(F)(F)F)C3)nc(N3CCNC(=O)C3)nc2s1` [Example 2-14, 4-[6-Butyl-4-(3-trifluoromethyl-5,6-dihydro-8H-[1,2,4]triazolo[4,3-a]pyrazin-7-yl)-thieno[2,3-d]pyrimidin-2-yl]-piperazin-2-one] are 0.329 µM and 0.1 µM.
In experiment [1], `O[C@@H]1CCN(c2nc(N3CCn4c(nnc4C(F)(F)F)C3)c3cc(CCC(F)(F)F)sc3n2)C1` [Example 2-20, (R)-1-[4-(3-Trifluoromethyl-5,6-dihydro-8H-[1,2,4]triazolo[4,3-a]pyrazin-7-yl)-6-(3,3,3-trifluoro-propyl)-thieno[2,3-d]pyrimidin-2-yl]-pyrrolidin-3-ol] gave a Ki of 0.04 µM. Besides, the IC50 in experiment [2] is 0.26 µM.
The compound `CCCc1cc2c(N3CCn4c(nnc4C(F)(F)F)C3)nc(OC3CNC3)nc2s1` [Example 3-26, 7-[2-(Azetidin-3-yloxy)-6-propyl-thieno[2,3-d]pyrimidin-4-yl]-3-trifluoromethyl-5,6,7,8-tetrahydro-[1,2,4]triazolo[4,3-a]pyrazine] gave a Ki in experiment [1] of 0.025 µM. The IC50 in experiment [2] was found to be 0.149 µM.
In experiment [1], `CCCc1cc2c(N3CCn4c(nnc4C(F)(F)F)C3)nc(N3CCCC(C(=O)OCOC(=O)C(C)(C)C)C3)nc2s1` (stereo not drawn) [Example 1-48, 1-[6-Propyl-4-(3-trifluoromethyl-5,6-dihydro-8H-[1,2,4]triazolo[4,3-a]pyrazin-7-yl)-thieno[2,3-d]pyrimidin-2-yl]-piperidine-3-carboxylic acid 2,2-dimethyl-propionyloxymethyl ester] gave a Ki of 1.3 µM. Besides, the IC50 in experiment [2] is 0.4 µM.
The matching figures for `CCc1cc2c(N3CCn4c(nnc4C(F)(F)F)C3)nc(N3CCN(C)CC3)nc2s1` [Example 2-10, 7-[6-Ethyl-2-(4-methyl-piperazin-1-yl)-thieno[2,3-d]pyrimidin-4-yl]-3-trifluoromethyl-5,6,7,8-tetrahydro-[1,2,4]triazolo[4,3-a]pyrazine]: 0.773 µM and 0.22 µM.
The compound `CCCc1cc2c(N3CCn4c(nnc4C(F)(F)F)C3)nc(C(=O)N3CCN(C)CC3)nc2s1` [Example 4-13, (4-Methyl-piperazin-1-yl)-[6-propyl-4-(3-trifluoromethyl-5,6-dihydro-8H-[1,2,4]triazolo[4,3-a]pyrazin-7-yl)thieno[2,3-d]pyrimidin-2-yl]methanone] returned a Ki in experiment [1] of 1.8 µM. The IC50 in experiment [2] amounted to 4.92 µM.
Regarding `CCCc1cc2c(N3CCn4c(nnc4C(F)(F)F)C3)nc(OCCNS(=O)(=O)C(F)(F)F)nc2s1` [Example 3-69, C,C,C-Trifluoro-N-{2-[6-propyl-4-(3-trifluoromethyl-5,6-dihydro-8H-[1,2,4]triazolo[4,3-a]pyrazin-7-yl)-thieno[2,3-d]pyrimidin-2-yloxy]-ethyl}-methanesulfonamide], the affinity in experiment [1], expressed as Ki, was 4.1 µM. Moreover, the 50% inhibitory concentration (IC50) in experiment [2] turned out to be 0.18 µM.
With `CCCc1cc2c(N3CCn4c(nnc4C(F)(F)F)C3)nc(N3CC[C@H](NC(=O)c4ccco4)C3)nc2s1` [Example 1-112, Furan-2-carboxylic Acid {(S)-1-[6-propyl-4-(3-trifluoromethyl-5,6-dihydro-8H-[1,2,4]triazolo[4,3-a]pyrazin-7-yl)-thieno[2,3-d]pyrimidin-2-yl]-pyrrolidin-3-yl}-amide], in experiment [1], the Ki is 0.26 µM. Also, the IC50 in experiment [2] stood at 0.05 µM.
The compound `CCCc1cc2c(N3CCn4c(nnc4C(F)(F)F)C3)nc(N3CCCCC3CO)nc2s1` (stereo not drawn) [Example 1-28, {1-[6-Propyl-4-(3-trifluoromethyl-5,6-dihydro-8H-[1,2,4]triazolo[4,3-a]pyrazin-7-yl)-thieno[2,3-d]pyrimidin-2-yl]-piperidin-2-yl}-methanol] gave a Ki in experiment [1] of 0.176 µM. Also, the IC50 in experiment [2] came to 0.04 µM.
For `CC(C)Cc1cc2c(N3CCn4c(nnc4C(F)(F)F)C3)nc(N3CC[C@@H](O)C3)nc2s1` [Example 2-18, (R)-1-[6-Isobutyl-4-(3-trifluoromethyl-5,6-dihydro-8H-[1,2,4]triazolo[4,3-a]pyrazin-7-yl)-thieno[2,3-d]pyrimidin-2-yl]-pyrrolidin-3-ol], the Ki in experiment [1] stood at 0.31 µM. In experiment [2], the IC50 amounted to 0.33 µM.
As to `CCCc1cc2c(N3CCn4c(nnc4C(F)(F)F)C3)nc(C(=O)NCC(=O)O)nc2s1` [Example 4-9, {[6-Propyl-4-(3-trifluoromethyl-5,6-dihydro-8H-[1,2,4]triazolo[4,3-a]pyrazin-7-yl)thieno[2,3-d]pyrimidine-2-carbonyl]amino}acetic acid], the affinity in experiment [1], expressed as Ki, was 5.1 µM. Further, the IC50 in experiment [2] turned out to be 1.1 µM.
